Laboratory results: patent publication US20200221739A1, “METHOD FOR REMOVAL OF ANTIBIOTIC RESIDUES FROM FOOD PRODUCTS” (The King Abdulaziz City for Science and Technology, priority 2016, published 2020)

Legend:
[1] = Degradation of antibiotics in double distilled water by gamma radiation, UV-Vis absorption; assay type: physicochemical; details: 50 |iM in double distilled water, 7 kGy gamma radiation
Procedure: The three target antibiotics as mentioned above were dissolved in double distilled water to make desired concentrations (in 10 mL volume). […] UV-Vis absorption spectra of the studied antibiotics in solution were recorded before and after irradiation treatment at different doses.
With reference to FIG. 2A, the maximum absorption of doxycycline at 275 nm was plotted against the concentration.

[2] = Removal of amoxicillin spiked in water, milk, eggs and chicken meat by gamma radiation, HPLC; assay type: physicochemical; details: for Removal percentage: 7 kGy, average across 1, 10, 20 and 50 |iM, assuming 15% error
Text: In all the example mentioned in the foregoing, the source of gamma radiation is a Cobalt-60 gamma rays source model Gamma Cell 220 from MDS Nordion, Canada. The source of gamma radiation was calibrated using aqueous ferrous sulfate (Fricke dosimetry) solution.
The desired concentration of amoxicillin was spiked in water, milk, eggs, and chicken meat. 20 |iL of spiked water samples before and post irradiation treatment was directly injected in HPLC. Amoxicillin spiked in milk, eggs, and chicken meat was extracted using acetonitrile. 2 mL (milk or eggs) or 2 g (chicken meat) of the spiked samples was mixed with 5 mL acetonitrile and shaken for 10 minutes following which the samples were centrifuged for 5 minutes at a speed of 3000 rpm. 5 mL of the supernatant was evaporated in a rotary-evaporation system and the antibiotic residue was dissolved in 2 mL of double distilled water. 20 |iL of the extracted samples was injected in HPLC.
Direct Uv-Vis measurements cannot be conducted to quantify the antibiotics in samples extracted from dairy or poultry products due to the significant chemical interference. FIG. 5 illustrates a comparison of HPLC signals of a range of amoxicillin concentration before and after irradiation with 7 kGy.
Removal percentage of amoxicillin in different samples with varied concentrations is reported by comparing the original concentrations with the corresponding post irradiation concentrations (i.e. before and after irradiation). FIG. 9 illustrates the average removal percentages for each sample type across the different concentration range (1, 10, 20, and 50 |iM), assuming 15% error in the observations. It was observed that there was 100% removal and decomposition of amoxicillin in water & milk samples and 80% removal of amoxicillin in eggs & chicken meat samples at a radiation dose of 7 kGy, within the permissible limits accepted by IAEA for food irradiation.

[3] = Degradation of amoxicillin by gamma radiation, 1H and 13C NMR; assay type: physicochemical; details: 5 mg/mL in water/D2O 1:1, 7 kGy
Procedure: Further, an additional confirmation of the degradation of amoxicillin was conducted using ^1H and ^13C NMR studies. Amoxicillin is dissolved in water and diluted at a ratio of 1:1 using D2O. A high concentration of amoxicillin (5 mg/mL) was used for this technique, with water as the NMR solvent. […] It is observed that the proton signals (at 4.5 to 4.8 ppm) of amoxicillin before irradiation are disappearing upon irradiation treatment. FIG. 11 illustrates the ^13C spectra of 5 mg/mL amoxicillin before and after irradiation treatment at 7 kGy for amoxicillin. Overall, the intensities of ^13C peaks are reduced (approximately 50%) after irradiation treatment indicating the decomposition and reduction in amoxicillin concentration in the sample.

[4] = system: E-coli; assay: E-coli growth inhibition experiments; assay type: cell-based
Procedure: With reference to FIG. 12 (top panel), two control experiments with water were conducted.

With CC1(C)S[C@@H]2[C@H](NC(=O)[C@H](N)c3ccc(O)cc3)C(=O)N2[C@H]1C(=O)O [amoxicillin] the “Removal (decrease of UV-Vis absorption bands) upon gamma irradiation” value [1] was “completely removed”, the Removal percentage ([2]; chicken meat samples) was 80% and the Removal percentage ([2]; eggs samples) was 80%. The Removal percentage ([2]; milk samples) was 100%, the “Concentration of amoxicillin after irradiation (HPLC)” value ([2]; range of concentrations, after irradiation with 7 kGy) was “below the detection limit of HPLC” and the Removal percentage ([2]; water samples) was 100%. The “Reduction of intensities of 13C peaks after irradiation treatment” value [3] was “approximately 50%”, the “Antimicrobial effect on E-coli growth” value ([4]; amoxicillin 150 |iM irradiated at 7 kGy) was “complete loss of antimicrobial effect” and the “Antimicrobial effect on E-coli growth” value ([4]; non-irradiated amoxicillin sample) was “growth inhibition”.
